Structures can show the parent of a compound that is named as a salt.
Throughout, for % oral/i.v. activity (Rat): key: NC^1 indicates screening not completed; low or very low activity obsrved at 20 mg/kg p.o; NC^2 indicates screening not completed; low or very low activity observed at 60 mg/kg p.o; NC^3 indicates screening not completed; low or very low activity observed at 50 mg/kg p.o.

Chain of factor Xa (P00742 235-488 limits assumed): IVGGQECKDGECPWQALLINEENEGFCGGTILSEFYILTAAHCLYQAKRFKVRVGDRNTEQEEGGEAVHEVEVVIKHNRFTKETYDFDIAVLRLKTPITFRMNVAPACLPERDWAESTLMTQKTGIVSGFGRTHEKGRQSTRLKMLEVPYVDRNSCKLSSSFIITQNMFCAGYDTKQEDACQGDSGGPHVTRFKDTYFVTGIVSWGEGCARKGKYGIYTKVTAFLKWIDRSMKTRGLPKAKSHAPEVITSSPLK
Chain of factor Xa (P00742 41-179 partner limits assumed): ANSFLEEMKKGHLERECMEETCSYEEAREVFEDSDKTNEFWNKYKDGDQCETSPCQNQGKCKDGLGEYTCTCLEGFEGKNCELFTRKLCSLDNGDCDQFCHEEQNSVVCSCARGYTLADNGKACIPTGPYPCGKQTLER
T2 sequence (P00747 581-810 limits assumed): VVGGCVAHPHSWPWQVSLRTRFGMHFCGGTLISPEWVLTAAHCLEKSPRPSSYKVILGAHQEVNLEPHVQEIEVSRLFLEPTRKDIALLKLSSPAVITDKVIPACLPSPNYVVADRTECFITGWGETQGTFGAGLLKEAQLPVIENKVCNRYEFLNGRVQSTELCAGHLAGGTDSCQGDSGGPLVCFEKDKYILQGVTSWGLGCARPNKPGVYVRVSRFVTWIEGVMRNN
T2 sequence (P00747 97-580 partner limits assumed): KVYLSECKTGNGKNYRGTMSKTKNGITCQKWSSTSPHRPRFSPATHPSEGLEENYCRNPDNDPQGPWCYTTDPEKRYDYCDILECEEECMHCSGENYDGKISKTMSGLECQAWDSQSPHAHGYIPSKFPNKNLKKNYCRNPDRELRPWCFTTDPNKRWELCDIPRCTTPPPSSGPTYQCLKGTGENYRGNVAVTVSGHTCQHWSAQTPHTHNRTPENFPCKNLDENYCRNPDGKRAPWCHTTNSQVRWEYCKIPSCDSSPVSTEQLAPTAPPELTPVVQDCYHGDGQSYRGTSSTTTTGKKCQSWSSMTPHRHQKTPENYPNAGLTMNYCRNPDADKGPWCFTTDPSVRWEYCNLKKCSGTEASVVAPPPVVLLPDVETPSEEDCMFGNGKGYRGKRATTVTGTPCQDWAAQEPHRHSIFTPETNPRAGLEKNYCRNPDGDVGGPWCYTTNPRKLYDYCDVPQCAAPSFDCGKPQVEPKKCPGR
Chain of t-PA (P00750 36-562): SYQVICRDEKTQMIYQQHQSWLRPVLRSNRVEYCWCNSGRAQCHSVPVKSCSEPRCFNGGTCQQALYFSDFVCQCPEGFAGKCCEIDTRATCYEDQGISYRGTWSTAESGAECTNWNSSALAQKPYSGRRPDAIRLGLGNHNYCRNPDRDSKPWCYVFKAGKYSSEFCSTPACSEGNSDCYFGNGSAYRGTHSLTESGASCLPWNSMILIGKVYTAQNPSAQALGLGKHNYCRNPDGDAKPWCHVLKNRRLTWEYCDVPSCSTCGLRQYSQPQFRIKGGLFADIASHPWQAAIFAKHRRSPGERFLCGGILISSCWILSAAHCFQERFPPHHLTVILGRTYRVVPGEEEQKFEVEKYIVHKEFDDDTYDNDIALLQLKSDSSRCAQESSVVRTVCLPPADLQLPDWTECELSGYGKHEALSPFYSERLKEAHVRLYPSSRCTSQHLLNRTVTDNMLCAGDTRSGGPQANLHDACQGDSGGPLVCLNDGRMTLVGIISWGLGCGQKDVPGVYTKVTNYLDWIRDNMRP

One data set has as its system human or animal plasma. The data set is described as follows: Anticoagulation determination in plasma: activated partial thromboplastin time (APTT). The data set is classed as biochemical. The note with it: concentration doubling activated partial thromboplastin time. A digest of the protocol:
(§1)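 Compounds spiked over a concentration range into citrated human, dog or rat plasma. PT used Thromboplastin-C; APTT used Actin reagent 120 s then 0.02 M CaCl2; TT used bovine thrombin 10 NIH units/mL. Concentration doubling clotting time estimated by linear extrapolation.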
In the case of `N=C(N)c1ccc(CNC(=O)[C@@H]2C[C@@H]3CCCC[C@@H]3N2C(=O)[C@@H](CC2CCCCC2)NCC(=O)O)cc1` [Example 49, HOOCCH2-D-Cha-cis-Ohi-p-NHCH2C6H4C(NH)NH2·HCl], the “Human Plasma Anticoagulation 2x Clotting time (ng/mL) APTT” value amounted to 130 ng/mL.

With `N=C(N)c1ccc(CNC(=O)[C@@H]2C[C@@H]3CCCC[C@@H]3N2C(=O)[C@H]2CCCCN2)cc1` [Example 20, D-hPro-Ohi-p-NHCH2C6H4C(NH)NH2·3HCl], the “Human Plasma Anticoagulation 2x Clotting time (ng/mL) APTT” value came to 550 ng/mL.

Regarding `N=C(N)c1ccc(CNC(=O)[C@@H]2C[C@@H]3CCCC[C@@H]3N2C(=O)[C@@H]2NCC[C@@H]3CCCC[C@@H]32)cc1` [Example 42, D-1-Piq-cis-Ohi-p-NHCH2C6H4C(NH)NH2·2HCl], the “Human Plasma Anticoagulation 2x Clotting time (ng/mL) APTT” value was found to be 270 ng/mL.

For a further data set, the target named is Human Thrombin (Homo sapiens, UniProt P00734). The data set is described as follows: biochemical. The conditions noted are these: read-out: Kass Human Thrombin (converted).
On to `N=C(N)c1ccc(CNC(=O)[C@@H]2C[C@@H]3CCCC[C@@H]3N2C(=O)[C@@H](CC2CCCCC2)NCC(=O)O)cc1` [Example 49, HOOCCH2-D-Cha-cis-Ohi-p-NHCH2C6H4C(NH)NH2·HCl], for which the Kd is 2.5 nM.

In the case of `N=C(N)c1ccc(CNC(=O)[C@@H]2C[C@@H]3CCCC[C@@H]3N2C(=O)[C@H]2CCCCN2)cc1` [Example 20, D-hPro-Ohi-p-NHCH2C6H4C(NH)NH2·3HCl], the Kd is 100 nM.

In the case of `N=C(N)c1ccc(CNC(=O)[C@@H]2C[C@@H]3CCCC[C@@H]3N2C(=O)[C@@H]2NCC[C@@H]3CCCC[C@@H]32)cc1` [Example 42, D-1-Piq-cis-Ohi-p-NHCH2C6H4C(NH)NH2·2HCl], the Kd is 26.3 nM.

A further data set addresses T1, Trypsin (Bos taurus, UniProt P00760).
T1 sequence (P00760 24-246): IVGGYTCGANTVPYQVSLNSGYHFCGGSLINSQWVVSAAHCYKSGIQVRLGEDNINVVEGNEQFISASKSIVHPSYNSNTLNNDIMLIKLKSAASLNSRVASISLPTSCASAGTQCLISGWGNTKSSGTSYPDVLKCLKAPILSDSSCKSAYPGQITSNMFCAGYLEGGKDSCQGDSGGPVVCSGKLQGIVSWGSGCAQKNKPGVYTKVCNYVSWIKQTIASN
The data set is described as follows: biochemical. Further details: species or system Bovine. The note with it: read-out: Kass Trypsin (converted). A digest of the protocol:
(§2)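 Bovine trypsin and human factor Xa amidase activity measured chromogenically, following the human thrombin procedure. Substrates: N-Benzoyl-Ile-Glu-Gly-Arg-p-nitroanilide for factor Xa and N-Benzoyl-Phe-Val-Arg-p-nitroanilide for trypsin. Used for selectivity profiling.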
In the case of `N=C(N)c1ccc(CNC(=O)[C@@H]2C[C@@H]3CCCC[C@@H]3N2C(=O)[C@@H](CC2CCCCC2)NCC(=O)O)cc1` [Example 49, HOOCCH2-D-Cha-cis-Ohi-p-NHCH2C6H4C(NH)NH2·HCl], the Kd was 1.06 nM.

On to `N=C(N)c1ccc(CNC(=O)[C@@H]2C[C@@H]3CCCC[C@@H]3N2C(=O)[C@H]2CCCCN2)cc1` [Example 20, D-hPro-Ohi-p-NHCH2C6H4C(NH)NH2·3HCl], for which the Kd is 52.6 nM.

For `N=C(N)c1ccc(CNC(=O)[C@@H]2C[C@@H]3CCCC[C@@H]3N2C(=O)[C@@H]2NCC[C@@H]3CCCC[C@@H]32)cc1` [Example 42, D-1-Piq-cis-Ohi-p-NHCH2C6H4C(NH)NH2·2HCl], the Kd is 23.3 nM.

The subject of the next data set is human or animal plasma. The data set is described as follows: Anticoagulation determination in plasma: thrombin time (TT). It counts as biochemical. The conditions noted are these: concentration doubling thrombin time. The method, boiled down: as §1
As for `N=C(N)c1ccc(CNC(=O)[C@@H]2C[C@@H]3CCCC[C@@H]3N2C(=O)[C@@H](CC2CCCCC2)NCC(=O)O)cc1` [Example 49, HOOCCH2-D-Cha-cis-Ohi-p-NHCH2C6H4C(NH)NH2·HCl], the “Human Plasma Anticoagulation 2x Clotting time (ng/mL) TT” value was 5 ng/mL.

For the compound `N=C(N)c1ccc(CNC(=O)[C@@H]2C[C@@H]3CCCC[C@@H]3N2C(=O)[C@H]2CCCCN2)cc1` [Example 20, D-hPro-Ohi-p-NHCH2C6H4C(NH)NH2·3HCl], the “Human Plasma Anticoagulation 2x Clotting time (ng/mL) TT” value was 62 ng/mL.

For the compound `N=C(N)c1ccc(CNC(=O)[C@@H]2C[C@@H]3CCCC[C@@H]3N2C(=O)[C@@H]2NCC[C@@H]3CCCC[C@@H]32)cc1` [Example 42, D-1-Piq-cis-Ohi-p-NHCH2C6H4C(NH)NH2·2HCl], the “Human Plasma Anticoagulation 2x Clotting time (ng/mL) TT” value turned out to be 20 ng/mL.

For the next data set, the target named is factor Xa (Homo sapiens, UniProt P00742). Briefly: biochemical. The conditions noted are these: read-out: Kass Xa (converted). A digest of the protocol:
as §2
Consider `N=C(N)c1ccc(CNC(=O)[C@@H]2C[C@@H]3CCCC[C@@H]3N2C(=O)[C@@H](CC2CCCCC2)NCC(=O)O)cc1` [Example 49, HOOCCH2-D-Cha-cis-Ohi-p-NHCH2C6H4C(NH)NH2·HCl], for which the Kd is 294 nM.

Consider `N=C(N)c1ccc(CNC(=O)[C@@H]2C[C@@H]3CCCC[C@@H]3N2C(=O)[C@H]2CCCCN2)cc1` [Example 20, D-hPro-Ohi-p-NHCH2C6H4C(NH)NH2·3HCl], for which the Kd is 10000 nM.

Take `N=C(N)c1ccc(CNC(=O)[C@@H]2C[C@@H]3CCCC[C@@H]3N2C(=O)[C@@H]2NCC[C@@H]3CCCC[C@@H]32)cc1` [Example 42, D-1-Piq-cis-Ohi-p-NHCH2C6H4C(NH)NH2·2HCl]: the Kd is 14300 nM.

Tested on in the next data set: not listed separately
Briefly: in vivo. The note with it: plasma; rat; oral vs i.v. Further details: species or system rats. An excerpt:
Each sample population represented alternating sequential time points.
The term bioavailability denotes the share of a dose that reaches the circulation, judged against a reference dose that is usually intravenous. Read a high bioavailability as much systemic uptake. `N=C(N)c1ccc(CNC(=O)[C@@H]2C[C@@H]3CCCC[C@@H]3N2C(=O)[C@H]2CCCCN2)cc1` [Example 20, D-hPro-Ohi-p-NHCH2C6H4C(NH)NH2·3HCl] came in with a bioavailability of 23%.

The data set is the same for the next values; noted with them: screening not completed, activity after p.o. dose given in the legend.
With `N=C(N)c1ccc(CNC(=O)[C@@H]2C[C@@H]3CCCC[C@@H]3N2C(=O)[C@@H](CC2CCCCC2)NCC(=O)O)cc1` [Example 49, HOOCCH2-D-Cha-cis-Ohi-p-NHCH2C6H4C(NH)NH2·HCl], the “% oral/i.v. activity (Rat)” value was “NC^2”.

With `N=C(N)c1ccc(CNC(=O)[C@@H]2C[C@@H]3CCCC[C@@H]3N2C(=O)[C@@H]2NCC[C@@H]3CCCC[C@@H]32)cc1` [Example 42, D-1-Piq-cis-Ohi-p-NHCH2C6H4C(NH)NH2·2HCl], the “% oral/i.v. activity (Rat)” value is “NC^2”.

A further data set has as its target T2, Plasmin (Homo sapiens, UniProt P00747).
T2 construct: Human plasmin is purchased; purchased Boehringer Mannheim, Indianapolis, Indiana
The data set is described as follows: biochemical. The conditions noted are these: read-out: Kass Plasmin (converted). A digest of the protocol:
(§3)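 Amidase activity of human plasmin and t-PA (nt-PA single-chain; mt-PA6) was measured by a chromogenic method adapted from a thrombin assay. Substrates were H-D-Val-Leu-Lys-p-nitroanilide for plasmin and H-D-Ile-Pro-Arg-p-nitroanilide for t-PA.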
For the compound `N=C(N)c1ccc(CNC(=O)[C@@H]2C[C@@H]3CCCC[C@@H]3N2C(=O)[C@@H](CC2CCCCC2)NCC(=O)O)cc1` [Example 49, HOOCCH2-D-Cha-cis-Ohi-p-NHCH2C6H4C(NH)NH2·HCl], the Kd was 1190 nM.

For the compound `N=C(N)c1ccc(CNC(=O)[C@@H]2C[C@@H]3CCCC[C@@H]3N2C(=O)[C@H]2CCCCN2)cc1` [Example 20, D-hPro-Ohi-p-NHCH2C6H4C(NH)NH2·3HCl], the Kd is 10000 nM.

Regarding `N=C(N)c1ccc(CNC(=O)[C@@H]2C[C@@H]3CCCC[C@@H]3N2C(=O)[C@@H]2NCC[C@@H]3CCCC[C@@H]32)cc1` [Example 42, D-1-Piq-cis-Ohi-p-NHCH2C6H4C(NH)NH2·2HCl], the Kd is 8330 nM.

In the next data set the target is t-PA (Homo sapiens, UniProt P00750). The data set is described as follows: biochemical. The conditions noted are these: read-out: Kass t-PA (converted). The method, boiled down:
as §3
As to `N=C(N)c1ccc(CNC(=O)[C@@H]2C[C@@H]3CCCC[C@@H]3N2C(=O)[C@@H](CC2CCCCC2)NCC(=O)O)cc1` [Example 49, HOOCCH2-D-Cha-cis-Ohi-p-NHCH2C6H4C(NH)NH2·HCl], the Kd is 25000 nM.

Consider `N=C(N)c1ccc(CNC(=O)[C@@H]2C[C@@H]3CCCC[C@@H]3N2C(=O)[C@H]2CCCCN2)cc1` [Example 20, D-hPro-Ohi-p-NHCH2C6H4C(NH)NH2·3HCl], for which the Kd is 130000 nM.

Consider `N=C(N)c1ccc(CNC(=O)[C@@H]2C[C@@H]3CCCC[C@@H]3N2C(=O)[C@@H]2NCC[C@@H]3CCCC[C@@H]32)cc1` [Example 42, D-1-Piq-cis-Ohi-p-NHCH2C6H4C(NH)NH2·2HCl], for which the Kd is 100000 nM.

For the next data set, the system named is human or animal plasma. Briefly: Anticoagulation determination in plasma: prothrombin time (PT). It counts as biochemical. The note with it: concentration doubling prothrombin time. The method, boiled down: as §1
As for `N=C(N)c1ccc(CNC(=O)[C@@H]2C[C@@H]3CCCC[C@@H]3N2C(=O)[C@@H](CC2CCCCC2)NCC(=O)O)cc1` [Example 49, HOOCCH2-D-Cha-cis-Ohi-p-NHCH2C6H4C(NH)NH2·HCl], the “Human Plasma Anticoagulation 2x Clotting time (ng/mL) PT” value was 130 ng/mL.

In the case of `N=C(N)c1ccc(CNC(=O)[C@@H]2C[C@@H]3CCCC[C@@H]3N2C(=O)[C@H]2CCCCN2)cc1` [Example 20, D-hPro-Ohi-p-NHCH2C6H4C(NH)NH2·3HCl], the “Human Plasma Anticoagulation 2x Clotting time (ng/mL) PT” value was found to be 600 ng/mL.

As for `N=C(N)c1ccc(CNC(=O)[C@@H]2C[C@@H]3CCCC[C@@H]3N2C(=O)[C@@H]2NCC[C@@H]3CCCC[C@@H]32)cc1` [Example 42, D-1-Piq-cis-Ohi-p-NHCH2C6H4C(NH)NH2·2HCl], the “Human Plasma Anticoagulation 2x Clotting time (ng/mL) PT” value stood at 320 ng/mL.

(Values after EP0672658B1, “Antithrombotic agents” (priority 1994, dated 1995).)
